Source: article PMC10824666 (Nature Cancer, 2023)
Where two headings read alike, the source gives them in different places. Each block holds one compound with its values, some of them ahead of it.

Experiments:
Experiment in all cases: biochemical
Parameters in all cases: Eurofins DiscoverX kinase panel, competitive binding assay at 1 uM, percent of DMSO control
Conditions in all cases: competitive binding, percent of DMSO control
TAK1 = biological target: T1, TAK1 (Homo sapiens, UniProt O43318)
T1 construct: gene MAP3K7
T1 sequence (O43318 1-606): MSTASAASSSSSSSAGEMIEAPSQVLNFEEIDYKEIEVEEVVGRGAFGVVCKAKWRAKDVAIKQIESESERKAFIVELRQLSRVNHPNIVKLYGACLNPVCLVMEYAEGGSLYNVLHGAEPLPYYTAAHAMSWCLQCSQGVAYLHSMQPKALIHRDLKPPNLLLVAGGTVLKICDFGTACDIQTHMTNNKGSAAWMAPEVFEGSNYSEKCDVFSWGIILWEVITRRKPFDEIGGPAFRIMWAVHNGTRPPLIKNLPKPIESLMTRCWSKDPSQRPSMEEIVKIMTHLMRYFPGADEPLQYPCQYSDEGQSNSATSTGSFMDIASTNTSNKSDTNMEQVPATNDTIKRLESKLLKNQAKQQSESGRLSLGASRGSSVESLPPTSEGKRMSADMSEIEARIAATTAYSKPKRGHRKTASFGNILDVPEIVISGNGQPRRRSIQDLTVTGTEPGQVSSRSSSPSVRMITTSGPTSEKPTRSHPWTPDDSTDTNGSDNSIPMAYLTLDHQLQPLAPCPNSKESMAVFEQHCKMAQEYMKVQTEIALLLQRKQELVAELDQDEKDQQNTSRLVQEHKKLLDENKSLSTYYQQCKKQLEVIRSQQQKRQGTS
In short: (§1)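 Competitive binding assay across a 96-kinase panel with KIF18A compounds at 1 µM; values given as percentage of control (POC), single experiment.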

MNK1b = biological target: T2, MNK1b (Homo sapiens, UniProt Q9BUB5)
T2 construct: gene MKNK1; isoform b
In short: as §1

PKC ε = biological target: T3, PKC ε (Homo sapiens, UniProt Q02156)
T3 construct: gene PRKCE
T3 sequence (Q02156 1-737): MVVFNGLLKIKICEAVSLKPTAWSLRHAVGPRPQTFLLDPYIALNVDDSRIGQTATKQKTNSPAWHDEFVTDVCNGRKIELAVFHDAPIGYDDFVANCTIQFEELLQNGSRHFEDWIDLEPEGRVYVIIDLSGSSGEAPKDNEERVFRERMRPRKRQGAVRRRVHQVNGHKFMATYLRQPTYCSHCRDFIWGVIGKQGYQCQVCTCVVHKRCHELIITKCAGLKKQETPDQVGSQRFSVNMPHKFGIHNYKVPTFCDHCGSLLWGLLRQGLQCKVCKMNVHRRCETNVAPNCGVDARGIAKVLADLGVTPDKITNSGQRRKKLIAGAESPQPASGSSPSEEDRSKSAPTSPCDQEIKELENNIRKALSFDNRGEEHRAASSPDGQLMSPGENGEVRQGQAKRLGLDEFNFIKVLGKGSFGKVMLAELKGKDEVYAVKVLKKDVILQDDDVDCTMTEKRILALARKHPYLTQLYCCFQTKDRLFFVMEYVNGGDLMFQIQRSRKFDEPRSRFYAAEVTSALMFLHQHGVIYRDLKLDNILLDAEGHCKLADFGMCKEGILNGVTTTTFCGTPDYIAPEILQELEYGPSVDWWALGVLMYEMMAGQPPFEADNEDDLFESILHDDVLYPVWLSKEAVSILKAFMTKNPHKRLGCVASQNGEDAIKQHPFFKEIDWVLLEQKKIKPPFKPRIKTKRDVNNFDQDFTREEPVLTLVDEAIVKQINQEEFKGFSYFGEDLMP
In short: as §1

[1] = read-out: Kinome Profiling performed by Eurofins DiscoverX / AM-1882, 1.0 µM / POC
[2] = read-out: Kinome Profiling performed by Eurofins DiscoverX / AM-5308, 1.0 µM / POC
[3] = read-out: Kinome Profiling performed by Eurofins DiscoverX / AM-0277, 1.0 µM / POC

T2 sequence (Q9BUB5 whole entry, canonical isoform): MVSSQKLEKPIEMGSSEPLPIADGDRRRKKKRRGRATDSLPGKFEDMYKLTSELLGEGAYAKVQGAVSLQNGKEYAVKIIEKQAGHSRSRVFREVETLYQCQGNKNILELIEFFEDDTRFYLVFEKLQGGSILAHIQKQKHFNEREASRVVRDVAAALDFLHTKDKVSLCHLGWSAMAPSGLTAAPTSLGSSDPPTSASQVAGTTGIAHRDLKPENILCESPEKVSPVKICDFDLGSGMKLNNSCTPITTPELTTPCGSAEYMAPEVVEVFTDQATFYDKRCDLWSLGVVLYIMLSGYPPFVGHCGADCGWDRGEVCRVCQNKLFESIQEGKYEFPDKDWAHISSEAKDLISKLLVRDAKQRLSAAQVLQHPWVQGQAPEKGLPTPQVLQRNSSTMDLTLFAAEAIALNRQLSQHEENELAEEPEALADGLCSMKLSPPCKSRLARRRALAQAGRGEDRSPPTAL

remaining activity at 1 µM (TAK1; [1]): 100%
remaining activity at 1 µM (MNK1b; [1]): 100%
remaining activity at 1 µM (PKC ε; [1]): 93%
SMILES: CC(C)(C)NS(=O)(=O)c1cccc(NC(=O)c2ccc(S(=O)(=O)NC(C)(C)C)cc2N2CCC3(CC2)CC3)c1 [AM-1882]

remaining activity at 1 µM (TAK1; [2]): 88.5%
remaining activity at 1 µM (MNK1b; [2]): 96.5%
remaining activity at 1 µM (PKC ε; [2]): 97.5%
SMILES: C[C@@H]1CN(c2cccc(NC(=O)c3ccc(NS(=O)(=O)CCO)cc3N3CCC4(CC3)CC4)n2)CCO1 [AM-5308]

remaining activity at 1 µM (TAK1; [3]): 100%
remaining activity at 1 µM (MNK1b; [3]): 100%
remaining activity at 1 µM (PKC ε; [3]): 100%
SMILES: CC(C)(CO)Nc1ccc(C(=O)Nc2cccc(S(=O)(=O)C3CCCC3)c2)c(N2CCC3(CC2)CC3)n1 [AM-0277]
